This note sets out measurements from patent US9234176B2, “Chemically defined production of cardiomyocytes from pluripotent stem cells” (The Board of Trustees of the Leland Stanford Junior …, priority 2012, dated 2016).

One experiment has as its system hiPSC. As to the kind of experiment: Analysis of components of defined media for hiPSC cardiac differentiation (contraction score). Further details: 9 components subtracting: cardiac differentiation score / 2 components subtracting: cardiac differentiation score: key: 0: no cardiac differentiation or cell death; +: some contraction; ++: >50% contraction; +++: >75% contraction. The experiment is classed as cell-based, human. As to conditions: for 21 components subtracting: cardiac differentiation score: a) each of the 21 components of B27 without insulin subtracted one at a time, score of medium lacking the component; for 10 components subtracting: cardiac differentiation score: b) second medium of 10 essential components, each subtracted one at a time; for 9 components subtracting: cardiac differentiation score: c) 9-component medium; for 9 components subtracting: cardiac differentiation score / 9 components (with 4 at 10x) subtracting: cardiac differentiation score / 6 components subtracting: cardiac differentiation score: each component subtracted; for 9 components (with 4 at 10x) subtracting: cardiac differentiation score: e) third medium with increased concentrations; for 6 components subtracting: cardiac differentiation score: f) fourth 6-component medium. From the text:
Development of a Chemically Defined Cardiac Differentiation Platform. We first generated eleven pluripotent hiPSC lines under chemically defined conditions (FIG. 7) on a chemically synthesized vitronectin peptide substrate, with nonenzymatic passaging (FIG. 8). […] To formulate a chemically defined differentiation protocol, we concentrated on the observation that three unrelated media formations are capable of supporting growth factor-based monolayer cardiac differentiation: RPMI+B27-ins, supplemented StemPro-34, and LI-APEL (Table 5). […] Beginning with the 21 components of B27, we subtracted one component at a time and assessed for continued high efficiency differentiation (Table 6a-c) and also assessed components from two other two media (supplemented StemPro-34 and LI-APEL) that yielded benefits (Table 6d-f). We concluded that hiPSC cardiac differentiation was successful in a media consisting of […]: RPMI 1640 basal medium, L-ascorbic acid 2-phosphate (AA 2-P), and BSA (Table 6g).
Other additions to cardiac differentiation media tested were 10.7 μg/mL recombinant human transferrin, […], 1 μg/mL linoleic acid, 1 μg/mL linolenic acid, 2 ng/mL triiodo-l-thyronine, 2 μg/mL L-carnitine, 1 μg/mL D,L-alpha-tocopherol acetate, 100 ng/mL retinol acetate, 1 μg/mL ethanolamine, 20 ng/mL corticosterone, 9 ng/mL progesterone, 47 ng/mL lipoic acid, 100 ng/mL retinol, 1 μg/mL D,L-alpha-tocopherol, 100 ng/mL biotin, 2.5 ug/mL catalase, 2.5 μg/mL glutathione, 2.5 μg/mL superoxide dismutase, 2 μg/mL L-carnitine, 15 μg/mL D(+)-galactose, 16.1 μg/mL putrescine, 450 μM 1-thioglycerol, 55 μM 2-mercaptoethanol, 64 μg/mL L-ascorbic acid 2-phosphate (all from Sigma-Aldrich).

The next experiment has as its system hPSC. As to the kind of experiment: Directed cardiac differentiation of hPSC in minimal media (Example 1). It is filed as cell-based, human. The following applies: for Wnt signaling antagonist effective for cardiac differentiation: at a concentration of 5 μM. Here is the method:
Directed Cardiac Differentiation Procedure. (volumes provided are for a T25 flask; adjust volumes proportionately for larger vessels) Day 0 (day 4 after passage): Aspirate medium, and replace with 5 mL of minimal media (CDM3, D3, D4, or D11) supplemented with 6 uM of CHIR-99021 (CHIR-99021 can be used at 4-15 μM). Place flasks in a regular ambient O2, 5% CO2 incubator. Day 2: 48 h. Aspirate media and replace with 5 mL of minimal media (CDM3, D3, D4, or D11). Day 3: 72 h. Aspirate media and replace with 5 mL of minimal media (CDM3, D3, D4, or D11) supplemented with 0.5 uM C59 (C59 may be used at 0.5-5 μM). Day 5: Aspirate media and replace with 5 mL of minimal media (CDM3, D3, D4, or D11). From day 5 onwards media should be changed every 2 days with minimal media (CDM3, D3, D4, or D11).
From day 0 to day 2 (d0-d2), minimal media (CDM3, D3, D4, or D11) was supplemented with the Wnt signaling agonist CHIR-99021 (6-10 uM 48 h, d0-d2), which triggers canonical Wnt/β-Catenin signaling that leads to the subsequent up-regulation of BMP4 and activin A. Media is then exchanged to non-supplemented minimal media (CDM3, D3, D4, or D11) for 1 day followed by contact with a Wnt signaling antagonist (e.g., C59: 0.5-5 uM, 48 h, d3-d5) for 2 days. At day 5, 7, and 9 minimal media (CDM3, D3, D4, or D11) is exchanged for fresh media, and contraction begins between d7 and d10. At day 11, media is exchanged to a variant of minimal media (CDM3, D3, D4, or D11) without […] that results in the depletion of non-cardiomyocytes due to a lack of glycogen stores. Media was exchanged on day 13 for fresh media lacking glucose. At day 15, media was exchanged for fresh minimal media (CDM3, D3, D4, or D11) (containing glucose).
The presence of cardiomyocytes was verified in a number of different ways, for example: flow cytometry of cells contacted with an antibody specific for a cardiomyocyte marker (TNNT2); imaging of cells stained with antibodies specific for α-Sarcomeric actin (red) and Troponin T (TNNT2); electrophysiological profiling; and evaluating responsiveness to known cardioactive drugs (e.g., Norepinephrine). Assays performed on multiple different cell lines (including several hESC lines and over 30 hiPSC lines) confirmed that the subject methods are highly consistent and highly efficient, as very little variability was observed among the different cell lines.

The mark [1] stands for this setting: d) component at 10 x concentration.

With `O=C(O)CCCC[C@@H]1CCSS1` (racemic) [Lipoic acid], in the experiment on hiPSC, the “21 components subtracting: cardiac differentiation score” value is given as “++ (>50% contraction)”.

Regarding `NC(=O)c1ccc(-c2nc(-c3ccc4c(c3)OCO4)c(-c3ccccn3)[nH]2)cc1` [B8431542], in the experiment with hPSC (small molecule inhibitors at the later stage of differentiation), the “further enhancement of differentiation by pathway inhibitors” value is listed as “did not further enhance the differentiation”.

Regarding `O=C(O)CCCC[C@@H]1SC[C@@H]2NC(=O)N[C@@H]21` [Biotin (vit B7), Biotin], the “21 components subtracting: cardiac differentiation score” value with hiPSC is on record as “++ (>50% contraction)”.

On to `C[C@]12C[C@H](O)[C@H]3[C@@H](CCC4=CC(=O)CC[C@@]43C)[C@@H]1CC[C@@H]2C(=O)CO` [Corticosterone], for which, in the experiment with hiPSC, the “21 components subtracting: cardiac differentiation score” value amounted to 0 and the “10 components subtracting: cardiac differentiation score” value was “++ (>50% contraction)”.

`O=C[C@H](O)[C@@H](O)[C@@H](O)[C@H](O)CO` [D(+)-galactose]: in the experiment with hiPSC, the “21 components subtracting: cardiac differentiation score” value is “++ (>50% contraction)”.

Consider `Cc1c(C)c2c(c(C)c1O)CCC(C)(CCCC(C)CCCC(C)CCCC(C)C)O2` [D,L-a-tocopherol (vit E), D,L-a-tocopherol], for which the “21 components subtracting: cardiac differentiation score” value in the experiment with hiPSC is “++ (>50% contraction)”.

For `CC(=O)Oc1c(C)c(C)c2c(c1C)CCC(C)(CCCC(C)CCCC(C)CCCC(C)C)O2` [D,L-a-tocopherol acetate], in the experiment with hiPSC, the “21 components subtracting: cardiac differentiation score” value is listed as 0, the “10 components subtracting: cardiac differentiation score” value came to 0, the “9 components subtracting: cardiac differentiation score” value amounted to 0 and the “9 components (with 4 at 10x) subtracting: cardiac differentiation score” value is “+++ (>75% contraction)”. Moreover, the “9 components with the addition of: cardiac differentiation score” value in the experiment on hiPSC (setting [1]) was “+++ (>75% contraction)”.

Regarding `NCCO` [Ethanolamine], in the experiment on hiPSC, the “21 components subtracting: cardiac differentiation score” value is listed as “++ (>50% contraction)”.

On to `N[C@@H](CCC(=O)N[C@@H](CS)C(=O)NCC(=O)O)C(=O)O` [Glutathione (reduced)], for which the “21 components subtracting: cardiac differentiation score” value with hiPSC is “++ (>50% contraction)”.

Turning to `C[C@]12CCC(=O)C=C1CC[C@@H]1[C@@H]2[C@@H](O)C[C@@]2(C)[C@H]1CC[C@]2(O)C(=O)CO` [Hydrocortisone], the “9 components with the addition of: cardiac differentiation score” value in the experiment on hiPSC (d) addition of components from the other media formulae of Table 5) is given as “+”.

As to `O=C1[C@H](Cc2ccc(O)cc2)N2C(=O)CCN(C(=O)NCc3ccccc3)[C@H]2CN1Cc1cccc2ccccc12` [ICG-001, (6S,9aS)-6-(4-hydroxybenzyl)-N-benzyl-8-(naphthalen-1-ylmethyl)-4,7-diaxo-hexahydro-2H-pyrazino[1,2-a]pyrimidine-1(6H)-carboxamide], the “Wnt signaling antagonist effective for cardiac differentiation” value in the experiment on hPSC was “not found to be effective”.

As to `Cc1ccc2nc(NC(=O)CSc3nc4c(c(=O)n3-c3ccccc3)SCC4)sc2c1` [IWP-2, N-(6-Methyl-2-benzothiazoyl)-2-[(3,4,6,7-tetrahydro-4-oxo-3-phenylthieno[3,2-d]pyrimidin-2-yl)thio]-acetamide], the “Wnt signaling antagonist effective for cardiac differentiation” value in the experiment on hPSC is “effective”.

For the compound `COc1ccccc1-n1c(SCC(=O)Nc2nc3ccc(C)cc3s2)nc2c(c1=O)SCC2` [IWP-4, 2-(3,4,6,7-tetrahydro-3-(2-methoxyphenyl)-4-oxothieno[3,2-d]pyrimidin-2-ylthio)-N-(6-methylbenzo[d]thiazol-2-yl)acetamide], the “Wnt signaling antagonist effective for cardiac differentiation” value in the experiment on hPSC is recorded as “effective”.

On to `C[N+](C)(C)C[C@H](O)CC(=O)[O-]` [L-carnitine], for which, in the experiment with hiPSC, the “21 components subtracting: cardiac differentiation score” value was found to be 0, the “10 components subtracting: cardiac differentiation score” value came to 0 and the “9 components subtracting: cardiac differentiation score” value is listed as 0. Moreover, the “9 components with the addition of: cardiac differentiation score” value in the experiment with hiPSC (setting [1]) was found to be 0.

Consider `CCCCC/C=C\C/C=C\CCCCCCCC(=O)O` [Linoleic acid], for which, in the experiment with hiPSC, the “21 components subtracting: cardiac differentiation score” value came to 0, the “10 components subtracting: cardiac differentiation score” value came out at 0, the “9 components subtracting: cardiac differentiation score” value came to 0 and the “9 components (with 4 at 10x) subtracting: cardiac differentiation score” value is recorded as 0. In addition, the “6 components subtracting: cardiac differentiation score” value in the experiment on hiPSC is given as “+++ (>75% contraction)”. Moreover, the “9 components with the addition of: cardiac differentiation score” value in the experiment on hiPSC (setting [1]) is listed as “+”.

For the compound `CC/C=C\C/C=C\C/C=C\CCCCCCCC(=O)O` [Linolenic acid], in the experiment with hiPSC, the “21 components subtracting: cardiac differentiation score” value was found to be 0, the “10 components subtracting: cardiac differentiation score” value is listed as 0, the “9 components subtracting: cardiac differentiation score” value is given as 0 and the “9 components (with 4 at 10x) subtracting: cardiac differentiation score” value is given as 0. In addition, in the experiment with hiPSC, the “6 components subtracting: cardiac differentiation score” value is “+++ (>75% contraction)”. In the experiment on hiPSC (setting [1]), the “9 components with the addition of: cardiac differentiation score” value was “+”.

For the compound `CC(=O)[C@H]1CC[C@H]2[C@@H]3CCC4=CC(=O)CC[C@]4(C)[C@H]3CC[C@]12C` [Progesterone], the “21 components subtracting: cardiac differentiation score” value in the experiment on hiPSC is given as “++ (>50% contraction)”.

In the case of `NCCCCN` [Putrescine], the “21 components subtracting: cardiac differentiation score” value with hiPSC is given as “++ (>50% contraction)”.

On to `CC(=O)OC/C=C(C)/C=C/C=C(C)/C=C/C1=C(C)CCCC1(C)C` [Retinol acetate (vit A), Retinol acetate], for which, in the experiment with hiPSC, the “21 components subtracting: cardiac differentiation score” value worked out at 0, the “10 components subtracting: cardiac differentiation score” value was 0, the “9 components subtracting: cardiac differentiation score” value amounted to 0 and the “9 components (with 4 at 10x) subtracting: cardiac differentiation score” value was “+++ (>75% contraction)”. In addition, in the experiment with hiPSC (setting [1]), the “9 components with the addition of: cardiac differentiation score” value is given as “+++ (>75% contraction)”.

`CC1=C(/C=C/C(C)=C/C=C/C(C)=C/CO)C(C)(C)CCC1` [Retinol, all trans (vit. A), Retinol, all trans]: the “21 components subtracting: cardiac differentiation score” value in the experiment with hiPSC is on record as “++ (>50% contraction)”.

For `O=[Se](O)O` [Sodium selenite], in the experiment with hiPSC, the “21 components subtracting: cardiac differentiation score” value came out at 0, the “10 components subtracting: cardiac differentiation score” value was determined as 0, the “9 components subtracting: cardiac differentiation score” value worked out at 0 and the “6 components subtracting: cardiac differentiation score” value is “+++ (>75% contraction)”. Further, in the experiment on hiPSC (setting [1]), the “9 components with the addition of: cardiac differentiation score” value is listed as “+++ (>75% contraction)”.

Take `N[C@@H](Cc1cc(I)c(Oc2ccc(O)c(I)c2)c(I)c1)C(=O)O` [T3 (triiodol-l-thyronine), triiodol-l-thyronine]: in the experiment on hiPSC, the “21 components subtracting: cardiac differentiation score” value is given as 0, the “10 components subtracting: cardiac differentiation score” value was found to be 0, the “9 components subtracting: cardiac differentiation score” value is listed as 0 and the “9 components (with 4 at 10x) subtracting: cardiac differentiation score” value was “+++ (>75% contraction)”. Further, the “9 components with the addition of: cardiac differentiation score” value in the experiment with hiPSC (setting [1]) is “+++ (>75% contraction)”.

Regarding Catalase, the “21 components subtracting: cardiac differentiation score” value in the experiment with hiPSC is “++ (>50% contraction)”.

Regarding Holo transferrin: B27 component, in the experiment with hiPSC, the “21 components subtracting: cardiac differentiation score” value was found to be 0, the “10 components subtracting: cardiac differentiation score” value stood at 0, the “9 components subtracting: cardiac differentiation score” value worked out at 0 and the “6 components subtracting: cardiac differentiation score” value is given as “+++ (>75% contraction)”. For the same compound, the “9 components with the addition of: cardiac differentiation score” value in the experiment on hiPSC (setting [1]) is “+”.
